Reference: paper PMC5563080, “The High-Affinity Interaction between ORC and DNA that Is Required for Replication Licensing Is Inhibited by 2-Arylquinolin-4-Amines” (Cell Chemical Biology, 2017)
pIC50: −log10 of the molar value.

System: U2OS
Assay: cells
Set-up: Inhibition of MCM4 chromatin loading (replication licensing) in synchronised U2OS cells, immunofluorescence high-content imaging
Conditions: Homo sapiens, 8 h, MCM4 DNA binding
Protocol: We used these changes to design a high-throughput assay for licensing inhibitors (Figure 1B). Human U2OS cells were released into S phase from a double-thymidine block (Figures S1A–S1C) and then treated with RO3306, a CDK1 inhibitor, to reversibly block them in G2 (Figure S1D). RO3306 was removed and cells were seeded into 384-well plates containing test compounds (Figure S1E). Eight hours later, when cells should have passed through mitosis and loaded MCM2–7, cells were fixed and immunostained for DNA-bound MCM4 and also treated with DAPI to stain total DNA (Figure S1F). Microscopic images of each treatment (Figures 1C and 1D) were taken on an InCell 1000 system, which returned values for MCM4 and DNA content for each of the cells identified. To avoid any confounding effects of RO3306 treatment, we then retested these 280 compounds using a low-throughput screen whereby cells were synchronized by mitotic shake-off prior to exposure with test compounds. This low-throughput assay also has the advantage of removing cells that suffer non-specific inhibition by test compounds, as only metabolically active cells can re-adhere to the plates. Sixteen compounds produced a reproducible reduction (>60%) of DNA-bound MCM4 in this assay. These 16 compounds fell into eight discrete chemical families, which we named RL1 to RL8. After resynthesis and re-assay, we decided to take 12 of these 16 compounds forward for further study: RL1a, RL1b, RL2, RL3a, RL3b, RL4, RL5a–RL5e, and RL8. […] Microscopic images (6 fields / well) of each treatment were taken on an InCell 1000 system (GE healthcare) using a 20x objective. ActivityBase from ID Business Solutions was used for the data processing and analysis, returning values for Mcm4 and DNA content for each of the cells identified. Figure S6 details the plate maps used for the assay. A Quality Control plate was included for every three assay plates (Figure S6), where columns 1-12 were low control wells (+ R03306 + 1% DMSO) and columns 13-24 were high control well (+Media + 1% DMSO). The performance of the assay on each screening plate was evaluated using internal controls. The criteria for data acceptance of an assay plate were signal to background (mean Hi Control) / (mean Lo Control) >1.5; Z-prime (1 - (3 x Lo Control Standard Deviation + 3 x SD Hi Control Standard Deviation) / (mean Hi Control - mean Lo Control)) >0.3. The statistics from all assay plates and Quality Control plates were analysed. The screen performance indicators were: signal to background 2.4±0.53 and Z-prime 0.47±0.10.

Row | pIC50 | SMILES
1 | 5.10 | CN(C)CCNc1cc(-c2ccco2)nc2ccccc12 [RL5a]
2 | 4.66 | CN(C)CCNc1cc(-c2cccs2)nc2ccccc12 [RL5b]
3 | 4.23 | CN(C)CCNc1nc(-c2ccncc2)nc2ccccc12 [RL5c]
4 | 4.49 | CCN(CC)CCNc1nc(-c2cccc(Cl)c2)nc2ccccc12 [RL5d]
5 | 5.15 | Cc1c(C)n(-c2nc3ccccc3s2)c2ncnc(NCCN(C)C)c12 [RL5e]
